“And” between values parts separate entries of the source, which are not always exact repeats. Equal values may be shown once. Toxic doses and inconclusive results are not listed.
System: BDF1 mice, P288 methotrexate-resistant leukemia, survival T/C
Assay: NCI In Vivo Anticancer Drug Screen. Data for tumor model P288 Lymphocytic Leukemia resistant to methotrexate; NSC 740 (intraperitoneal) in B6D2F1 (BDF1) mice
Settings: endpoint: median survival time, higher = longer survival
Procedure: The antitumor activity of compounds was measured in mice bearing transplantable tumors. Survival or tumor size were measured and the results are expressed as the measurement made in the treated group (T) divided by the measurement made in the vehicle treated control group (C). The tumor model used in this assay is P288 Lymphocytic Leukemia resistant to methotrexate; NSC 740 (intraperitoneal) in B6D2F1 (BDF1) mice

[1] = dose: 4.0 mg/kg/injection, schedule: Q01DX010 (ip), vehicle: saline
[2] = dose: 8.0 mg/kg/injection, schedule: Q01DX010 (ip), vehicle: saline
[3] = dose: 16.0 mg/kg/injection, schedule: Q01DX010 (ip), vehicle: saline
[4] = dose: 0.25 mg/kg/injection, schedule: Q01DX010 (ip), vehicle: saline
[5] = dose: 0.5 mg/kg/injection, schedule: Q01DX010 (ip), vehicle: saline
[6] = dose: 1.0 mg/kg/injection, schedule: Q01DX010 (ip), vehicle: saline
[7] = dose: 2.0 mg/kg/injection, schedule: Q01DX010 (ip), vehicle: saline
[8] = dose: 10.0 mg/kg/injection, schedule: Q01DX010 (ip), vehicle: saline
[9] = dose: 20.0 mg/kg/injection, schedule: Q01DX010 (ip), vehicle: saline
[10] = dose: 40.0 mg/kg/injection, schedule: Q01DX010 (ip), vehicle: saline
[11] = dose: 15.0 mg/kg/injection, schedule: Q01DX010 (ip), vehicle: saline
[12] = dose: 30.0 mg/kg/injection, schedule: Q01DX010 (ip), vehicle: saline
[13] = dose: 60.0 mg/kg/injection, schedule: Q01DX010 (ip), vehicle: saline
[14] = dose: 120.0 mg/kg/injection, schedule: Q01DX010 (ip), vehicle: saline
[15] = dose: 200.0 mg/kg/injection, schedule: Q01DX010 (ip), vehicle: saline
[16] = dose: 3.13 mg/kg/injection, schedule: Q01DX010 (ip), vehicle: saline
[17] = dose: 6.25 mg/kg/injection, schedule: Q01DX010 (ip), vehicle: saline
[18] = dose: 12.5 mg/kg/injection, schedule: Q01DX010 (ip), vehicle: saline
[19] = dose: 62.5 mg/kg/injection, schedule: Q01DX010 (ip), vehicle: saline
[20] = dose: 5.0 mg/kg/injection, schedule: Q01DX010 (ip), vehicle: saline
[21] = dose: 6.0 mg/kg/injection, schedule: Q01DX010 (ip), vehicle: saline
[22] = dose: 12.0 mg/kg/injection, schedule: Q01DX010 (ip), vehicle: saline
[23] = dose: 25.0 mg/kg/injection, schedule: Q01DX010 (sc), vehicle: steriod suspending solution
[24] = dose: 50.0 mg/kg/injection, schedule: Q01DX010 (sc), vehicle: steriod suspending solution
[25] = dose: 100.0 mg/kg/injection, schedule: Q01DX010 (sc), vehicle: steriod suspending solution
[26] = dose: 25.0 mg/kg/injection, schedule: Q01DX010 (ip), vehicle: saline
[27] = dose: 50.0 mg/kg/injection, schedule: Q01DX010 (ip), vehicle: saline
[28] = dose: 100.0 mg/kg/injection, schedule: Q01DX010 (ip), vehicle: saline

CC(CCC(C)OS(C)(=O)=O)OS(C)(=O)=O (centres undefined)
T/C [1]: 95 % of control | T/C [2]: 87 % of control and 95 % of control | T/C [3]: 95 % of control and 100 % of control

O=C(Nc1ccc(C2=NCCN2)cc1)c1cccc(C(=O)Nc2ccc(C3=NCCN3)cc2)c1
T/C [2]: 155 % of control and 166 % of control | T/C [3]: 185 % of control and 194 % of control | T/C (dose: 32.0 mg/kg/injection, schedule: Q01DX010 (ip), vehicle: saline): 200 % of control and 238 % of control | T/C (dose: 64.0 mg/kg/injection, schedule: Q01DX010 (ip), vehicle: saline): 250 % of control and 255 % of control

Nc1ncnc2c1ccn2C1OC(CO)C(O)C1O (centres undefined)
T/C [4]: 100 % of control | T/C [5]: 100 % of control | T/C [6]: 118 % of control | T/C [7]: 100 % of control

CC1CCOS(=O)O1 (centres undefined)
T/C [8]: 91 % of control and 95 % of control | T/C [9]: 90 % of control | T/C [10]: 95 % of control | T/C (dose: 80.0 mg/kg/injection, schedule: Q01DX010 (ip), vehicle: saline): 90 % of control

N#[N+]c1cnc([O-])[nH]c1=O
T/C (dose: 1.25 mg/kg/injection, schedule: Q01DX010 (ip), vehicle: saline): 100 % of control | T/C (dose: 2.5 mg/kg/injection, schedule: Q01DX010 (ip), vehicle: saline): 116 % of control and 118 % of control

N#CCSc1ncnc2nc[nH]c12
T/C [11]: 91 % of control | T/C [12]: 94 % of control and 95 % of control | T/C [13]: 91 % of control and 94 % of control | T/C [14]: 94 % of control

CN(C)CC(=O)c1ccc(O)c(O)c1
T/C [15]: 110 % of control and 113 % of control | T/C (dose: 300.0 mg/kg/injection, schedule: Q01DX010 (ip), vehicle: saline): 120 % of control and 122 % of control | T/C (dose: 450.0 mg/kg/injection, schedule: Q01DX010 (ip), vehicle: saline): 115 % of control and 118 % of control | T/C (dose: 675.0 mg/kg/injection, schedule: Q01DX010 (ip), vehicle: saline): 122 % of control

CS(=O)(=O)OCC(O)C(O)COS(C)(=O)=O (centres undefined)
T/C [15]: 86 % of control | T/C (dose: 400.0 mg/kg/injection, schedule: Q01DX010 (ip), vehicle: saline): 93 % of control | T/C (dose: 800.0 mg/kg/injection, schedule: Q01DX010 (ip), vehicle: saline): 100 % of control

O=C(Nc1ccc(NC2=NCCN2)cc1)c1ccc(C(=O)Nc2ccc(NC3=NCCN3)cc2)cc1
T/C [7]: 150 % of control | T/C [1]: 240 % of control and 250 % of control | T/C [2]: 250 % of control and 285 % of control | T/C [3]: 115 % of control

O=C(O)CCCc1ccc(N(CCCl)CCCl)cc1
T/C [16]: 90 % of control and 95 % of control | T/C [17]: 91 % of control and 100 % of control | T/C [18]: 115 % of control

CN(C)c1ccc(Nc2c3ccccc3nc3ccccc23)cc1
T/C (dose: 36.0 mg/kg/injection, schedule: Q01DX010 (ip), vehicle: saline): 95 % of control and 115 % of control | T/C (dose: 54.0 mg/kg/injection, schedule: Q01DX010 (ip), vehicle: saline): 115 % of control and 116 % of control | T/C [14]: 120 % of control

C[C@H](N)C(=O)N[C@@H]1[C@H]2C(=C(O)C[C@@H](O)[C@@H]2O)C(=O)O[C@@H]1C
T/C (dose: 150.0 mg/kg/injection, schedule: Q01DX010 (ip), vehicle: saline): 112 % of control | T/C (dose: 600.0 mg/kg/injection, schedule: Q01DX010 (ip), vehicle: saline): 150 % of control | T/C (dose: 1200.0 mg/kg/injection, schedule: Q01DX010 (ip), vehicle: saline): 183 % of control

OCC1OC(n2cnc3c(Cl)ncnc32)C(O)C1O (centres undefined)
T/C [19]: 95 % of control and 100 % of control | T/C (dose: 125.0 mg/kg/injection, schedule: Q01DX010 (ip), vehicle: saline): 90 % of control and 100 % of control | T/C (dose: 250.0 mg/kg/injection, schedule: Q01DX010 (ip), vehicle: saline): 90 % of control and 105 % of control | T/C (dose: 500.0 mg/kg/injection, schedule: Q01DX010 (ip), vehicle: saline): 90 % of control

CCN(CC)c1ccc2cc3ccc(=[N+](CC)CC)cc-3oc2c1
T/C [6]: 90 % of control | T/C [7]: 104 % of control | T/C [1]: 100 % of control | T/C [2]: 90 % of control

C1CN1c1nc(N2CC2)nc(N2CC2)n1
T/C (dose: 0.13 mg/kg/injection, schedule: Q01DX010 (ip), vehicle: saline): 90 % of control and 91 % of control | T/C [4]: 108 % of control and 110 % of control | T/C [6]: 90 % of control

CN(C)c1ccc(/C=C/c2ccnc3ccccc23)cc1
T/C [20]: 104 % of control | T/C [8]: 90 % of control and 100 % of control | T/C [9]: 90 % of control and 100 % of control | T/C [10]: 90 % of control and 91 % of control

O=C(Nc1ccc(C2=NCCN2)cc1)c1ccc(C(=O)Nc2ccc(C3=NCCN3)cc2)c([N+](=O)[O-])c1
T/C [21]: 150 % of control | T/C [2]: 160 % of control and 172 % of control | T/C [22]: 238 % of control and 285 % of control | T/C (dose: 18.0 mg/kg/injection, schedule: Q01DX010 (ip), vehicle: saline): 161 % of control and 165 % of control

NC(=O)N(CCCl)N=O
T/C [5]: 210 % of control and 213 % of control | T/C [6]: 300 % of control | T/C [7]: 168 % of control and 300 % of control | T/C [1]: 90 % of control

CC(=O)O[C@]1(C(C)=O)CC[C@H]2[C@@H]3C[C@H](C)C4=CC(=O)C=C[C@]4(C)[C@@]3(F)[C@@H](O)C[C@@]21C
T/C (dose: 12.5 mg/kg/injection, schedule: Q01DX010 (sc), vehicle: steriod suspending solution): 100 % of control | T/C [23]: 110 % of control | T/C [24]: 105 % of control | T/C [25]: 100 % of control

CN(N=O)C(N)=O
T/C [8]: 110 % of control | T/C [9]: 150 % of control | T/C [10]: 95 % of control

Nc1nc(=S)c2ncn(C3OC(CO)C(O)C3O)c2[nH]1 (centres undefined)
T/C [7]: 90 % of control and 91 % of control and 115 % of control | T/C [1]: 91 % of control and 96 % of control and 120 % of control | T/C [2]: 93 % of control | T/C [3]: 90 % of control (2×) and 91 % of control

CC(=O)Nc1ccc2nc3ccc(NC(C)=O)cc3[n+](-c3ccccc3)c2c1
T/C [26]: 122 % of control | T/C [27]: 110 % of control | T/C [28]: 106 % of control | T/C [15]: 100 % of control and 113 % of control

Clc1ncnc2nc[nH]c12
T/C (dose: 7.5 mg/kg/injection, schedule: Q01DX010 (ip), vehicle: saline): 93 % of control | T/C [11]: 93 % of control | T/C [12]: 93 % of control | T/C [13]: 100 % of control

N=[N+]=CC(=O)OCC(N)C(=O)O (centres undefined)
T/C [16]: 110 % of control | T/C [17]: 112 % of control and 120 % of control | T/C [18]: 108 % of control and 120 % of control | T/C [26]: 120 % of control

C[C@@H]1C[C@@H]([C@H](O)CC2CC(=O)NC(=O)C2)C(=O)[C@@H](C)C1
T/C [20]: 93 % of control and 94 % of control | T/C [8]: 88 % of control and 100 % of control | T/C [9]: 100 % of control | T/C [10]: 111 % of control

CCCCNc1ncnc2c1cnn2C
T/C (dose: 15.6 mg/kg/injection, schedule: Q01DX010 (ip), vehicle: saline): 105 % of control | T/C (dose: 31.3 mg/kg/injection, schedule: Q01DX010 (ip), vehicle: saline): 110 % of control | T/C [19]: 95 % of control and 110 % of control

C[C@]12C=CC(=O)C=C1CC[C@@H]1[C@@H]2[C@@H](O)C[C@@]2(C)[C@H]1CC[C@]2(O)C(=O)CO
T/C [23]: 118 % of control | T/C [24]: 109 % of control | T/C [25]: 100 % of control | T/C (dose: 200.0 mg/kg/injection, schedule: Q01DX010 (sc), vehicle: steriod suspending solution): 100 % of control

COc1cc(-c2ccc(Nc3ccccc3C(=O)O)c(OC)c2)ccc1Nc1ccccc1C(=O)O
T/C [26]: 154 % of control | T/C [27]: 163 % of control | T/C [28]: 172 % of control

Nc1ncnc2[nH]ncc12
T/C (dose: 1.5 mg/kg/injection, schedule: Q01DX010 (ip), vehicle: saline): 100 % of control | T/C (dose: 3.0 mg/kg/injection, schedule: Q01DX010 (ip), vehicle: saline): 95 % of control and 100 % of control | T/C [21]: 100 % of control and 105 % of control | T/C [22]: 90 % of control and 110 % of control

Cc1cc(N(CCCl)CCCl)ccc1N=Nc1ccccc1C(=O)O
T/C [20]: 104 % of control and 105 % of control | T/C [8]: 109 % of control and 110 % of control | T/C [9]: 115 % of control

O=NN(CCCl)C(=O)NCCCl
T/C [17]: 280 % of control and 300 % of control | T/C [18]: 180 % of control

O=C(Nc1ccc(NC(=O)Nc2cccc(C3=NCCN3)c2)cc1)Nc1cccc(C2=NCCN2)c1
T/C [13]: 200 % of control and 225 % of control | T/C [14]: 250 % of control and 322 % of control | T/C (dose: 240.0 mg/kg/injection, schedule: Q01DX010 (ip), vehicle: saline): 183 % of control and 235 % of control | T/C (dose: 480.0 mg/kg/injection, schedule: Q01DX010 (ip), vehicle: saline): 100 % of control and 120 % of control

— PubChem BioAssay AID204 (DTP/NCI, 2004)
